One assay has as its target T1, BTK kinase domain (Homo sapiens, UniProt Q06187).
T1 construct: human BTK kinase domain (residues 387–659); 6xHis (N, cleaved yes); TEV protease cleavage site (N, cleaved yes); made in house; virus produced in Sf9, expression in Tni insect cells
As to the kind of experiment: LC-MS covalent binding and ibrutinib competition assay with recombinant BTK kinase domain. The conditions noted are these: for protein labeled by the PROTAC / formation of covalent complex with BTK: 3 μM compound + 2 μM BTK; for protein labeled by the PROTAC / displacement by ibrutinib (ibrutinib adduct formation) / formation of covalent complex with BTK: LC-MS; for displacement by ibrutinib (ibrutinib adduct formation): 40 μM ibrutinib added to preformed complex; for displacement by ibrutinib (ibrutinib adduct formation) / time scale of exchange / dissociation of the covalent complex: 37 °C; for time scale of exchange / dissociation of the covalent complex: 40 μM ibrutinib. As for the experimental part: We also used LC-MS to directly observe the formation of covalent complexes with recombinant BTK and measure their dissociation kinetics (Figure 6C, D, Supporting Figure 5A).
Binding experiments were performed in Tris 20 mM pH = 8, 50 mM NaCl, and 1 mM DTT. BTK kinase domain was diluted to 2 μM in buffer, and 3 μM PROTAC was added by adding 1/100th volume from a 300 μM solution. The PROTACs were incubated with BTK at room temperature for various times. For testing by LCMS, 24 μL of the solution was mixed with 6 μL of 2.4% formic acid, and 10 μL was injected to LCMS.
For binding experiments in the presence of glutathione, freshly dissolved reduced glutathione was incubated at 6.14 mM with 4 μM compounds for 30 min at room temperature in Tris 20 mM pH = 8 and 50 mM NaCl. At this point BTK was added to a concentration of 2 μM (diluting the GSH to 5 mM and the compounds to 3.25 μM), and LC-MS was used as described previously to follow the covalent labeling of BTK.
For data analysis, the raw spectra were deconvoluted using a 27 000:37 000 Da window and 1 Da resolution. The signal from masses 27 000:30 000 and 34 000:37 000 (which contained no peaks) was averaged and subtracted from the whole signal.
Cloning and Over Expression of BTK
Human wild type BTK full length was obtained from the ORFeome (ref: http://www.orfeomecollaboration.org/), from which the full human BTK gene (clone HsCD00433457) was inserted into the mammalian expression vector pCDNA3.1. In parallel, a mutant BTK C481S was constructed by assemble 2 PCR products harboring the desired mutation and cloned into pCDNA3.1. Both constructs contain a C -terminal 6x-His tag and three amino acids sequence (GTK) linker between the BTK coding sequence and the His tag.
The expression of hBTK is driven by the CMV promoter. U2OS cells (ATCC HTB-96) were grown to 70% confluency in a 10 cm plate, transfected with either hBTK plasmid (BTK WT or C481S) using Lipofectamine 2000 reagent (Thermo Fisher Scientific) according to manufacturer’s instructions. Cells were subsequently incubated for 48 hours post transfection, trypsinized and resuspended in 12 mL medium, and divided 2 mL per well in a 6-well plates and left to adhere over-night. 72 hours post transfection 100 nM PROTACs were added for 24 hours and BT K was measured by performing western blot procedure as described in the main […]
Expression and Purification of Recombinant BTK
The expression and purification of human BTK kinase domain (residues 387–659) was based on the method used by Bradsha w JM. et al1. The kinase domain was inserted into pFastBac-1 with an N-terminal 6× -His tag followed by a TEV protease cleavage site (The plasmid was a gift from Dr. Ville Paavilainen, University of Helsinki). Viruses were produced […]
cells by infection of 2 L of cultured cells with 1:200 mL virus solution such that cell growth was terminated after 3 days. The cells were collected by centrifugation (800 g for 15 minutes), and the pellet was resu spended in 50 mL ly sis buf fer (10 mM Hepes, pH 7.5, 400 mM NaCl, 1.5 mM DTT) supplemented with 1× protease inhibitor cocktail (Roche). The cells were lysed by five passages through a cell homogenizer. The cellular debris wer e pelleted by centrifugation (30,000 g for 30 minutes). The protein was bound in batch to nickel– nitrilotriacetic acid agarose beads in binding buffer (lysis buffer supplemented with 20 mM imidazole) for 4 hours at 4°C. The beads were washed with additional binding buffer ( four 5 mL washes), and the protein was eluted with four 0.5 mL portions of elution buffer (lysis buffer […]
supplemented with 300 mM imidazole). The His tag was cleaved by the addition of TEV protease with concomitant dialysis overnight into cleavage buffer (50 mM Tris, pH 8.0, 0.5 mM EDTA, 1 mM DTT) at 4°C. The resulting soluble protein was passed ov er Ni -NTA beads to remove the protease and purified further by gel filtration on a HiLoad_16/60_Superdex_75 (GE Healthcare) column equilibrated with 20 mM Tris, pH 8.0, 50 mM NaCl, 1 mM DTT. The […]

The next assay relates to primary mouse B cells. As to the kind of experiment: B cell activation after anti-IgM stimulation, CD86 staining. It is filed as cell-based. How it is done:
Lastly, we assessed the ability of the PROTACs to abrogate the activation of primary mouse B cells in response to B cell receptor stimulation. For this purpose, primary B cells were treated with anti-IgM for 18 h,[36],[37] followed by staining for CD86, a B cell activation surface marker (Figure 8; Supporting Figure 7). […]
supplemented with 300 mM imidazole). The His tag was cleaved by the addition of TEV protease with concomitant dialysis overnight into cleavage buffer (50 mM Tris, pH 8.0, 0.5 mM EDTA, 1 mM DTT) at 4°C. The resulting soluble protein was passed ov er Ni -NTA beads to remove the protease and purified further by gel filtration on a HiLoad_16/60_Superdex_75 (GE Healthcare) column equilibrated with 20 mM Tris, pH 8.0, 50 mM NaCl, 1 mM DTT. The pure protein was then flash-frozen in liquid nitrogen and stored at −80°C.
C57BL/6 mice were purchased from Harlan (Rehovot, Israel) and maintained in a pathogen-free facility, experiments were carried on 8-12 weeks old male mice. All exp eriments with mice were approved by the Weizmann Institute Animal Care and Use Committee.
Splenic cells from C57BL/6 mice were isolated by forcing spleen tissue through mesh into PBS containing 2% fetal calf serum and 1 mM EDTA and red blood cells were depleted by lysis buffer. Cells were cultured in 96-well U-b ottom dishes (1x10^6 cells/m L in RPMI 10% […]
nM, 10 nM, 1 nM, 0.1 nM) for 24 hours at 37° C in 5% humidified CO2 incubator. Following a 24 hours incubation, cells were stimulated with anti-IgM overnight (5 µg/mL, Sigma-Aldrich). Subsequently, cells were stained with anti-B220 (clone RA3-6B2, Biolegend) and anti-CD86 (clone GL-1, Biolegend) antibodies for 30 minutes at 4°C. Single cell suspensions were analyzed by a flow cytometer (CytoFlex, Beckman Coulter).
Cells were analyzed by intensity based, label-free mass spectrometry based proteomics.
Sample preparation: 106 Ramos cells were treated in four replicates with either compound or DMSO for 24 hours. Cells were then washed twice by centrifuge at 200 rcf, 4°C for 5 minutes, removing the supernatant and washed with ice cold PBS. Samp les were then centrifuged at 200 rcf, 4°C for 5 minutes, then supernatant was removed and samples were frozen at -80°C.
Samples were dispersed in 75 µl of 50 mM ammonium bicarbonate, and transferred to 1.8 mL glass vials. 75 µl of 10% SDS in 50 mM ammonium bicarbonate were added and the samples were heated to 96° C for 6 minutes. The samples were sonicated thoroughly in a sonication bath until the DNA was sheared as indicated by reduction in viscosity to level enabling easy pipettation. Total protein concentration was estimated using BCA as say and 30 µg from each sample was taken for the experiment.

Where [1] appears, read: anti-IgM stimulation, PROTAC 24 h.

T1 sequence (Q06187 387-659): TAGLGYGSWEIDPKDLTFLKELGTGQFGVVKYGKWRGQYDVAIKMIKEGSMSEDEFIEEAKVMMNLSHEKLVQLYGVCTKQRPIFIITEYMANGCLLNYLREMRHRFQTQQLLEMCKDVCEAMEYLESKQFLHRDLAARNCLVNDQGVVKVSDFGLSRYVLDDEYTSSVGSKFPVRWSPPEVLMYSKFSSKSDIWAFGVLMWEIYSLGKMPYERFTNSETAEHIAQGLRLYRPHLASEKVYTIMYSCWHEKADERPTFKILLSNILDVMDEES

As to `Nc1ncnc2c1c(-c1ccc(Oc3ccccc3)cc1)nn2C1CCCN(C(=O)C=CCOCCOCCOCCOCCOCCOc2cccc3c2C(=O)N(C2CCC(=O)NC2=O)C3=O)C1` (stereo not drawn) [IR-1], on BTK kinase domain, the “protein labeled by the PROTAC” value is reported as 80–85% and the “displacement by ibrutinib (ibrutinib adduct formation)” value (“displacement by ibrutinib” below) is “no ibrutinib adduct was observed even after 28 h”.
With `CC(C)(C=C(C#N)C(=O)N1CCCC(n2nc(-c3ccc(Oc4ccccc4)cc3)c3c(N)ncnc32)C1)CCCOCCOCCOCCOCCOc1cccc2c1C(=O)N(C1CCC(=O)NC1=O)C2=O` (stereo not drawn) [RC-3], at BTK kinase domain (room temperature), the “formation of covalent complex with BTK” value was “extremely fast”. At BTK kinase domain, the “displacement by ibrutinib” value is listed as “gradual displacement of the PROTAC by ibrutinib” and the “time scale of exchange / dissociation of the covalent complex” value lay in the range of 10 to 20 h. In the assay with primary mouse B cells (at 1 μM), the “inhibition of B cell activation compared to ibrutinib” value (“inhibition … compared to ibrutinib” for short) was “superior activity to ibrutinib”.
Turning to `N#CC(=CCCCCOCCOCCOCCOCCOc1cccc2c1C(=O)N(C1CCC(=O)NC1=O)C2=O)C(=O)N1CCCC(n2nc(-c3ccc(Oc4ccccc4)cc3)c3c(N)ncnc32)C1` (stereo not drawn) [RC-2], at BTK kinase domain, the “displacement by ibrutinib” value is on record as “gradual displacement of the PROTAC by ibrutinib” and the “time scale of exchange / dissociation of the covalent complex” value was 10 to 20 h. Moreover, in the assay on primary mouse B cells (at 1 μM), the “inhibition … compared to ibrutinib” value was “superior activity to ibrutinib”.
For the molecule `Nc1ncnc2c1c(-c1ccc(Oc3ccccc3)cc1)nn2C1CCCN(C(=O)CCCCCCOCCOCCOCCOCCOc2cccc3c2C(=O)N(C2CCC(=O)NC2=O)C3=O)C1` (stereo not drawn) [NC-1], the “formation of covalent complex with BTK” value on BTK kinase domain (room temperature) is recorded as “forms no covalent adduct”. At BTK kinase domain (4 μM ibrutinib, 1 h, room temperature), the “ibrutinib labeling of BTK in presence of the PROTAC” value is 100%. The “time to full ibrutinib labeling of BTK in presence of preincubated PROTAC” value on BTK kinase domain (4 μM ibrutinib, room temperature) is on record as at most 1 h. Besides, in the assay with primary mouse B cells (setting [1]), the “inhibition of B cell activation (CD86)” value is given as “strongest effect” and the “inhibition … compared to ibrutinib” value is “superior inhibition compared to ibrutinib”.
As for `Nc1ncnc2c1c(-c1ccc(Oc3ccccc3)cc1)nn2C1CCCN(C(=O)C=CCCCCOCCOCCOCCOCCOc2cccc3c2C(=O)N(C2CCC(=O)NC2=O)C3=O)C1` (stereo not drawn) [IR-2], on BTK kinase domain, the “protein labeled by the PROTAC” value is given as 80–85% and the “displacement by ibrutinib” value is given as “no ibrutinib adduct was observed even after 28 h”. Also, in the assay with primary mouse B cells (setting [1]), the “inhibition of B cell activation (CD86)” value is “strongest effect” and the “inhibition … compared to ibrutinib” value is listed as “superior inhibition compared to ibrutinib”.
